Source: article PMC7363723, “Fungal Kti12 proteins display unusual linker regions and unique ATPase p-loops” (Current Genetics, 2020)

Assays:
Type in all cases: binding
[1] = target: T1, CtKti12 (Thermochaetoides thermophila, UniProt G0SHI1); experiment: thermal shift assay (SYPRO Orange); conditions: 1 mM ATP, 2 mM MgCl2, 20 mM Tris-HCl pH 7.5, 150 mM NaCl, 2 mM DTT; 0.6 °C/min
T1 construct: gene CTHT_0070100; full-length, codon-optimized ORF in pET24d (NcoI/XhoI), purified from bacteria; PDB 6QP0 (earlier work) covers the ATPase domain only
T1 sequence (G0SHI1 1-378): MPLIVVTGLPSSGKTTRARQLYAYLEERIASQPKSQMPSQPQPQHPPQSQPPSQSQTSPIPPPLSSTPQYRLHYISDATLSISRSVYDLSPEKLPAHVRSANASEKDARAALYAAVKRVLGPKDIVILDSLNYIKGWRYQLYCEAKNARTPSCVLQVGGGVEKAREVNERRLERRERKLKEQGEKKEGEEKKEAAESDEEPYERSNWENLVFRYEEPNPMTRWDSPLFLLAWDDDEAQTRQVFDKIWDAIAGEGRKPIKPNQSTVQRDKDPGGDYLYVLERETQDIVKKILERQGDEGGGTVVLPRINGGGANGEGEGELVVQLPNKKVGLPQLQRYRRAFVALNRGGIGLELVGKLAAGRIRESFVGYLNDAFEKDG

[2] = target: T2, CtKti12 (Thermochaetoides thermophila, UniProt G0SHI1, K14V); experiment: fluorescence polarization, one-site fit
T2 construct: gene CTHT_0070100; full-length, codon-optimized ORF in pET24d (NcoI/XhoI), purified from bacteria; PDB 6QP0 (earlier work) covers the ATPase domain only
T2 sequence (G0SHI1 entry or part of it K14V): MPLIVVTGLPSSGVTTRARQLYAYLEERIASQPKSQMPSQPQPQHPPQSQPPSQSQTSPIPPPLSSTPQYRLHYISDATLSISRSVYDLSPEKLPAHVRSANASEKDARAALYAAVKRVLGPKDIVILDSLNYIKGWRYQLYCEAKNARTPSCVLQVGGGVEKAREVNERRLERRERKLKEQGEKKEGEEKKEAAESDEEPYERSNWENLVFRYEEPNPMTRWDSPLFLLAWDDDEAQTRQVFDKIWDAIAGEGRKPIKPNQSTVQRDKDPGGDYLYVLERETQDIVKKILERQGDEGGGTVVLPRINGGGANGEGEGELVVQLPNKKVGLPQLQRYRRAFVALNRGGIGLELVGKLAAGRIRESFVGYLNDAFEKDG

[3] = target: T1, CtKti12; experiment: fluorescence polarization, one-site fit
[4] = target: T3, CtKti12 (Thermochaetoides thermophila, UniProt G0SHI1, K14L); experiment: fluorescence polarization, one-site fit
T3 construct: gene CTHT_0070100; full-length, codon-optimized ORF in pET24d (NcoI/XhoI), purified from bacteria; PDB 6QP0 (earlier work) covers the ATPase domain only
T3 sequence (G0SHI1 entry or part of it K14L): as the sequence (G0SHI1 entry or part of it K14V) above, with V14L counted along it

[5] = target: T4, CtKti12 (Thermochaetoides thermophila, UniProt G0SHI1, K14A); experiment: fluorescence polarization, one-site fit
T4 construct: gene CTHT_0070100; full-length, codon-optimized ORF in pET24d (NcoI/XhoI), purified from bacteria; PDB 6QP0 (earlier work) covers the ATPase domain only
T4 sequence (G0SHI1 entry or part of it K14A): as the sequence (G0SHI1 entry or part of it K14V) above, with V14A counted along it

melting point without ATP to with ATP [1] | Kd [2] | Kd [3] | Kd [4] | Kd [5] | Compound
46.0 to 50.0 °C | – | – | – | – | Nc1ncnc2c1ncn2[C@@H]1O[C@H](COP(=O)(O)OP(=O)(O)OP(=O)(O)O)[C@@H](O)[C@H]1O [ATP]
– | > 100 µM | 1.5 ± 0.2 µM | 25 ± 2.4 µM | > 100 µM | CNc1ccccc1C(=O)O[C@H]1[C@@H](O)[C@H](n2cnc3c(N)ncnc32)O[C@@H]1CO[P@@](=O)(O)O[P@](=O)(O)OP(=O)(O)O [MANT-ATP]
